From publication PMC4191062, “Development of αGlcN(1↔1)αMan-Based Lipid A Mimetics as a Novel Class of Potent Toll-like Receptor 4 Agonists” (Journal of Medicinal Chemistry, 2014)

Tests used:
[1] = Storage stability in aqueous solution (MALDI-TOF analysis); format: physicochemical; settings: 4 °C, several months, free acids at the phosphates
Procedure: Next, the free 6-OH group in the hexaacylated disaccharides 57 and 58 was phosphorylated by reaction with dibenzyl-(N,N′-diisopropylamino)phosphoramidite in the presence of a mild acid catalyst, 1H-tetrazole, and subsequent oxidation with mCPBA at −78 °C to furnish the bisphosphorylated hexaacylated products 61 and 62 in 91% and 89% yield, respectively. Final debenzylation by hydrogenation of 57, 61, and 62 on Pd-black followed by purification with gel permeation chromatography on Sephadex SX1 in toluene–methanol (2:1) afforded target bisphosphorylated Lipid A mimetics 1 and 2 and a monophosphorylated counterpart 3.

THP-1 cells = experiment: IRF-3 and IκBα phosphorylation by western blotting in THP-1 cells; format: cell-based, human
Procedure: Supplementary SI-Figure 3
Dose-dependent responses (THP-1 cells: α,α-GM-LAM 1-3 and Re-LPS) at the concentration range 0.4 – 100 ng/ml which are presented in the Figure 5, were extended to the higher concentration range (up to 300 ng/ml).
SI-Figure 3. Dose-dependent expression of cytokines induced by α,α-GM-LAM 1-3 in macrophage cell line THP-1 compared to E. coli Re-LPS at the concentration range 0.4 – 300 ng/ml. (A) Production of TNF-α; (B) Induction of […]
Supplementary SI-Figure 4
Lipid A mimetic 1 was examined for the activation of NF-κB (Nuclear factor kappaB) and IRF3
(Interferon regulatory factor 3). IRF3 activation […]
noticeable after 1h stimulation, though was
LPS. At 1h stimulation the α,α-GM-LAM 1 was […]
whereas at 3h simulation compound 1 (at a […]
stronger phosphorylation of IκBa (P-IκBa levels) as well as the higher levels of IκBa (reflecting the NF-κB dependent re-synthesis of IκB following its
Thus, IRF3 activation and NF-κB activation […]
degradation and its NF-κB dependent resynthesis) […]
compared to LPS after 3h stimulation.
SI-Figure 4. NF-κB and IRF-3 activation by LPS and α,α-GM-LAM 1 in macrophage-like cell line THP-1. THP-1 cells were treated for 1 h (upper panel) or for 3 h (lower panel) with 1 or with E. coli O111:B4 LPS at the concentrations 10, 100 and 1000 ng/ml. Non treated cells (NT) or cells treated with DMSO were used as controls.
Cell extracts were separated by SDS polyacrylamide gel electrophoresis. Phosphorylated or total IRF-3 and IκBα was detected by western blotting as indicated. Actin detection was used as a control for equal loading in each line. […]
Supplementary SI-Figure 6
The relative contribution of hydrophobic (acyl chains of Lipid A) and electrostatic (phosphate groups of Lipid A) interactions at the dimerization interface of two TLR4·MD-2·LPS complexes as well as the impact of the molecular shape of MD-2–bound Lipid A on the initiation of TLR4-mediated immune response remains largely unknown. […]

## CCCCCCCCCCCCCC(=O)O[C@H](CCCCCCCCCCC)CC(=O)O[C@@H]1[C@@H](NC(=O)C[C@@H](CCCCCCCCCCC)OC(=O)CCCCCCCCCCC)[C@@H](O[C@H]2O[C@H](COP(=O)(O)O)[C@@H](OC(=O)C[C@@H](CCCCCCCCCCC)OC(=O)CCCCCCCCCCC)[C@H](O)[C@@H]2OC)O[C@H](CO)[C@H]1OP(=O)(O)O [Compound 1, 4-O-[(R)-3-(Dodecanoyloxy)tetradecanoyl]-2-O-methyl-6-O-phosphoryl-α-D-mannopyranosyl-(1↔1)-2-deoxy-2-[(R)-3-(dodecanoyloxy)tetradecanoylamino]-4-O-phosphoryl-3-O-[(R)-3-(tetradecanoyloxy)tetradecanoyl]-α-D-glucopyranoside]
[1]
  stability on storage in aqueous solution: without any noticeable sign of degradation
THP-1 cells; THP-1, 1 h stimulation
  activation of NF-κB compared with LPS: comparable
THP-1 cells; THP-1, 3 h stimulation
  IRF3 activation (IRF-3 phosphorylation): detectable after 3h stimulation
THP-1 cells; THP-1, 3 h stimulation, concentration higher than 50 nM
  activation of NF-κB compared with LPS (P-IκBα and IκBα levels): more potent

## CCCCCCCCCCCCCC(=O)O[C@H](CCCCCCCCCCC)CC(=O)O[C@@H]1[C@@H](NC(=O)C[C@@H](CCCCCCCCCCC)OC(=O)CCCCCCCCCCC)[C@@H](O[C@H]2O[C@H](COP(=O)(O)O)[C@@H](OC(=O)C[C@@H](CCCCCCCCCCC)OC(=O)CCCCCCCCC)[C@H](O)[C@@H]2OC)O[C@H](CO)[C@H]1OP(=O)(O)O [Compound 2, 4-O-[(R)-3-(Decanoyloxy)tetradecanoyl]-2-O-methyl-6-O-phosphoryl-α-mannopyranosyl-(1↔1)-2-deoxy-2-[(R)-3-(dodecanoyloxy)tetradecanoylamino]-4-O-phosphoryl-3-O-[(R)-3-(tetradecanoyloxy)tetradecanoyl]-α-D-glucopyranoside]
[1]
  stability on storage in aqueous solution: without any noticeable sign of degradation
